The source of these data is patent US12398154B2, “Azaquinazoline pan-KRas inhibitors” (Mirati Therapeutics, Inc., priority 2020, dated 2025).

As usually defined, the IC50 is the concentration that gives 50% inhibition. A low value points to greater potency in that assay.

Holding throughout (experiment): biochemical
Assay [1] deals with KRas G12S (Homo sapiens, UniProt P01116, G12S).
Protocol: (§1) The ability of a compound to bind to KRas was measured using a TR-FRET displacement assay. […] After a 60-minute incubation at room temperature, the reaction was measured using a BMG LABTECH CLARIO star Plus via TR-FRET. […] The POC values were fit to a 4-parameter IC50 equation and the IC50 value reported.
In assay [2] the target is KRas G12D (Homo sapiens, UniProt P01116, G12D).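 Further: TR-FRET displacement binding assay on KRas, read after a one-hour incubation at room temperature, IC50 fitted from percent-of-control values.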
Chain of KRas G12D (P01116 1-169 isoform P01116-2 G12D): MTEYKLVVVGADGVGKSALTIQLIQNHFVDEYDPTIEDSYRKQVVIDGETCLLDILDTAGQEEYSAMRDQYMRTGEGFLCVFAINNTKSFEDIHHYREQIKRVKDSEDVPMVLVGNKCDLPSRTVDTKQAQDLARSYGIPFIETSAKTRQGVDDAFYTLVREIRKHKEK
Protocol: as §1
For assay [3], the target named is KRas WT (Homo sapiens, UniProt P01116).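 Further: binding to KRas read as TR-FRET displacement after a one-hour room-temperature incubation, IC50 derived from percent-of-control values.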
Chain of KRas WT (P01116 1-169 isoform P01116-2): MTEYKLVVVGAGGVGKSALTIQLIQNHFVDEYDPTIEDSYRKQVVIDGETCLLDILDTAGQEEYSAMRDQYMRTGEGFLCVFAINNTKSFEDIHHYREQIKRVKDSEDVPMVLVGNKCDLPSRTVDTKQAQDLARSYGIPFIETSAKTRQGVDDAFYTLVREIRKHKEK
Protocol: as §1
For assay [4], the target named is KRas G12C (Homo sapiens, UniProt P01116, G12C).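 Further: binding to KRas assessed by TR-FRET displacement after one hour incubation at room temperature, potency fitted from percent-of-control values.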
Chain of KRas G12C (P01116 1-169 isoform P01116-2 G12C): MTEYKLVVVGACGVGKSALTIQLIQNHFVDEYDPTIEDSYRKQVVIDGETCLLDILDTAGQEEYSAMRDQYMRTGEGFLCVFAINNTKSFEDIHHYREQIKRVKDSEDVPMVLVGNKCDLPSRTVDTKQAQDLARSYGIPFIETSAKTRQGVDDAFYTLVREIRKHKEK
Protocol: as §1
Assay [5] deals with KRas G12R (Homo sapiens, UniProt P01116, G12R).
Chain of KRas G12R (P01116 1-169 isoform P01116-2 G12R): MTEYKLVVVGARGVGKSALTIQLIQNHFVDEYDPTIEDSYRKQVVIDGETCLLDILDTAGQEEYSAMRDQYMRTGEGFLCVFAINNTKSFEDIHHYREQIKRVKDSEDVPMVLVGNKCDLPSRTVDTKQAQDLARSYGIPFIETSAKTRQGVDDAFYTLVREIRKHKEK
Protocol: as §1
For assay [6], the target named is KRas G12V (Homo sapiens, UniProt P01116, G12V).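 Further: KRas binding measured by TR-FRET displacement at room temperature, IC50 fitted from percent of control values.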
Chain of KRas G12V (P01116 1-169 isoform P01116-2 G12V): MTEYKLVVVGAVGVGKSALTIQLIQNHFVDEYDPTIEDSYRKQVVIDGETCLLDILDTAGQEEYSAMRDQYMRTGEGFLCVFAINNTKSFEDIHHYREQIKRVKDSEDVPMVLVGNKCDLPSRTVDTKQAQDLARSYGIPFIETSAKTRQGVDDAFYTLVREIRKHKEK
Protocol: as §1
Assay [7] has as its target KRas G12A (Homo sapiens, UniProt P01116, G12A).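 Further: binding to KRas measured by TR-FRET displacement after one hour at room temperature, IC50 from a four-parameter fit of percent-of-control values.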
Protocol: as §1

Chain of KRas G12A (P01116 1-169 isoform P01116-2 G12A): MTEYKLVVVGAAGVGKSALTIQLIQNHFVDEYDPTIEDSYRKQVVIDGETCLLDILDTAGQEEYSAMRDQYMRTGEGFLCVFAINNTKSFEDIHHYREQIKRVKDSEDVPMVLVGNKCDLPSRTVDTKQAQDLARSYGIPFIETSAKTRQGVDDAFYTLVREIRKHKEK
Chain of KRas G12S (P01116 1-169 isoform P01116-2 G12S): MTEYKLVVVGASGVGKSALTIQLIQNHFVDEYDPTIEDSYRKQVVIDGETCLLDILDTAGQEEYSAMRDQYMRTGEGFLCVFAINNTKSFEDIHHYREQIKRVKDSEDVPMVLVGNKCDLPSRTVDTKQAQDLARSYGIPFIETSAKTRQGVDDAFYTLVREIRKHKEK

With `O=C1NC(=O)C2(CCCCN(c3nc(OCC45CCCN4CCC5)nc4c(F)c(-c5cccc6cccc(F)c56)ncc34)C2)N1` (stereo not drawn) [Example 267, 7-(8-fluoro-7-(8-fluoronaphthalen-1-yl)-2-((hexahydro-1H-pyrrolizin-7a-yl)methoxy)pyrido[4,3-d]pyrimidin-4-yl)-1,3,7-triazaspiro[4.6]undecane-2,4-dione], the IC50 worked out at 2070 nM in assay [1]; 4370 nM in assay [2]; 1560 nM in assay [3]; 2250 nM in assay [4]; 1720 nM in assay [5]; 1710 nM in assay [6]. Further, the IC50 in assay [7] was 2500 nM.

In the case of `OCC1CN(c2nc(OCC34CCCN3CCC4)nc3c(F)c(-c4cccc5cccc(F)c45)ncc23)CCCO1` (stereo not drawn) [Example 269, (4-(8-fluoro-7-(8-fluoronaphthalen-1-yl)-2-((hexahydro-1H-pyrrolizin-7a-yl)methoxy)pyrido[4,3-d]pyrimidin-4-yl)-1,4-oxazepan-2-yl)methanol], the IC50 in assay [1] worked out at 725 nM; in assay [2], 1910 nM; in assay [3], 1060 nM; in assay [4] it was 608 nM; in assay [5], 1060 nM; in assay [6], 1000 nM. Besides, in assay [7], the IC50 is 1050 nM.

Regarding `O=C1NC(=O)C2(COCCN(c3nc(OCC45CCCN4CCC5)nc4c(F)c(-c5cccc6cccc(F)c56)ncc34)C2)N1` (stereo not drawn) [Example 272, 10-(8-fluoro-7-(8-fluoronaphthalen-1-yl)-2-((hexahydro-1H-pyrrolizin-7a-yl)methoxy)pyrido[4,3-d]pyrimidin-4-yl)-7-oxa-1,3,10-triazaspiro[4.6]undecane-2,4-dione], the IC50 in assay [1] was found to be 132 nM; in assay [2], 194 nM; in assay [3], 116 nM; in assay [4], 141 nM; in assay [5], 120 nM; in assay [6], 130 nM. The 50% inhibitory concentration (IC50) in assay [7] was 138 nM.

Take `O=C1C[C@@]2(CCN(c3nc(OCC45CCCN4CCC5)nc4c(F)c(-c5cccc6cccc(F)c56)ncc34)C2)CN1` [Example 280, (S)-7-(8-fluoro-7-(8-fluoronaphthalen-1-yl)-2-((hexahydro-1H-pyrrolizin-7a-yl)methoxy)pyrido[4,3-d]pyrimidin-4-yl)-2,7-diazaspiro[4.4]nonan-3-one]: the IC50 in assay [1] is not below 100000 nM; in assay [2], not below 100000 nM; in assay [3], not below 100000 nM; in assay [4] it was 9860 nM; in assay [5], not below 100000 nM; in assay [6], not below 100000 nM. In assay [7], this compound showed an IC50 not below 100000 nM.

In the case of `NS(=O)(=O)CC1CCCN(c2nc(OCC34CCCN3CCC4)nc3c(F)c(-c4cccc5cccc(Cl)c45)ncc23)C1` (stereo not drawn) [Example 281, 1-(1-(7-(8-chloronaphthalen-1-yl)-8-fluoro-2-((tetrahydro-1H-pyrrolizin-7a(5H)-yl)methoxy)pyrido[4,3-d]pyrimidin-4-yl)piperidin-3-yl)methanesulfonamide], the IC50 in assay [1] was determined as 67 nM; in assay [2], 213 nM; in assay [3], 61 nM; in assay [4], 75 nM; in assay [5], 81 nM; in assay [6], 170 nM. The compound further gave an IC50 in assay [7] of 59 nM.

`O=C1NC(=O)C2(CCCN(c3nc(OCC45CCCN4CCC5)nc4c(F)c(-c5cccc6cccc(Cl)c56)ncc34)C2)N1` (stereo not drawn) [Example 282, 7-(7-(8-chloronaphthalen-1-yl)-8-fluoro-2-((hexahydro-1H-pyrrolizin-7a-yl)methoxy)pyrido[4,3-d]pyrimidin-4-yl)-1,3,7-triazaspiro[4.5]decane-2,4-dione]: the IC50 in assay [1] came out at 15 nM; in assay [2], 30 nM; in assay [3], 15 nM; in assay [4], 16 nM; in assay [5], 18 nM; in assay [6], 15 nM. Also, inhibition in assay [7] was half-maximal at 16 nM (IC50).

As for `O=C1CC2(CCCN(c3nc(OCC45CCCN4CCC5)nc4c(F)c(-c5cccc6cccc(Cl)c56)ncc34)C2)N1` (stereo not drawn) [Example 283, 6-(7-(8-chloronaphthalen-1-yl)-8-fluoro-2-((tetrahydro-1H-pyrrolizin-7a(5H)-yl)methoxy)pyrido[4,3-d]pyrimidin-4-yl)-1,6-diazaspiro[3.5]nonan-2-one], the IC50 in assay [1] is 91 nM; in assay [2], 97 nM; in assay [3], 113 nM; in assay [4], 77 nM; in assay [5], 129 nM; in assay [6] it was 90 nM. It took 97 nM to reach half-maximal inhibition in assay [7] (IC50).

In the case of `O=C1NCC2(CCCN(c3nc(OCC45CCCN4CCC5)nc4c(F)c(-c5cccc6cccc(Cl)c56)ncc34)C2)N1` (stereo not drawn) [Example 284, 7-(7-(8-chloronaphthalen-1-yl)-8-fluoro-2-((hexahydro-1H-pyrrolizin-7a-yl)methoxy)pyrido[4,3-d]pyrimidin-4-yl)-1,3,7-triazaspiro[4.5]decan-2-one], the IC50 turned out to be 45 nM in assay [1]; 38 nM in assay [2]; 46 nM in assay [3]; 44 nM in assay [4]; 58 nM in assay [5]; 41 nM in assay [6]. In assay [7], the IC50 was found to be 46 nM.

With `CCc1cccc2cccc(-c3ncc4c(N5CCCC(CS(N)(=O)=O)C5)nc(OCC56CCCN5CCC6)nc4c3F)c12` (stereo not drawn) [Example 285, 1-(1-(7-(8-ethylnaphthalen-1-yl)-8-fluoro-2-((tetrahydro-1H-pyrrolizin-7a(5H)-yl)methoxy)pyrido[4,3-d]pyrimidin-4-yl)piperidin-3-yl)methanesulfonamide], the IC50 was 359 nM in assay [1]; 976 nM in assay [2]; 323 nM in assay [3]; 426 nM in assay [4]; 350 nM in assay [5]; 864 nM in assay [6]. In assay [7], this compound gave a 50% inhibitory concentration (IC50) of 367 nM.

For `CCc1cccc2cccc(-c3ncc4c(N5CCCC6(CNC(=O)C6)C5)nc(OCC56CCCN5CCC6)nc4c3F)c12` (stereo not drawn) [Example 286, 7-(7-(8-ethylnaphthalen-1-yl)-8-fluoro-2-((hexahydro-1H-pyrrolizin-7a-yl)methoxy)pyrido[4,3-d]pyrimidin-4-yl)-2,7-diazaspiro[4.5]decan-3-one], the IC50 was 407 nM in assay [1]; 313 nM in assay [2]; 608 nM in assay [3]; 410 nM in assay [4]; 674 nM in assay [5]; 521 nM in assay [6]. In assay [7], the IC50 stood at 370 nM.

Take `CCc1cccc2cccc(-c3ncc4c(NCc5cn[nH]c5)nc(OCC56CCCN5CCC6)nc4c3F)c12` [Example 287, N-((1H-pyrazol-4-yl)methyl)-7-(8-ethylnaphthalen-1-yl)-8-fluoro-2-((hexahydro-1H-pyrrolizin-7a-yl)methoxy)pyrido[4,3-d]pyrimidin-4-amine]: the IC50 in assay [1] was found to be 590 nM; in assay [2] it was 8170 nM; in assay [3] it was 838 nM; in assay [4], 321 nM; in assay [5], 225 nM; in assay [6], 225 nM. Besides, the IC50 in assay [7] worked out at 648 nM.

As for `CCc1cccc2cccc(-c3ncc4c(N5CCCC6(CC(=O)N6)C5)nc(OCC56CCCN5CCC6)nc4c3F)c12` (stereo not drawn) [Example 288, 6-(7-(8-ethylnaphthalen-1-yl)-8-fluoro-2-((hexahydro-1H-pyrrolizin-7a-yl)methoxy)pyrido[4,3-d]pyrimidin-4-yl)-1,6-diazaspiro[3.5]nonan-2-one], the IC50 in assay [1] worked out at 82 nM; in assay [2] it was 53 nM; in assay [3], 89 nM; in assay [4], 68 nM; in assay [5], 78 nM; in assay [6], 67 nM. In assay [7], this compound displayed an IC50 of 95 nM.

As to `CCc1cccc2cccc(-c3ncc4c(N5CCOCC(CO)C5)nc(OCC56CCCN5CCC6)nc4c3F)c12` (stereo not drawn) [Example 289, (4-(7-(8-ethylnaphthalen-1-yl)-8-fluoro-2-((hexahydro-1H-pyrrolizin-7a-yl)methoxy)pyrido[4,3-d]pyrimidin-4-yl)-1,4-oxazepan-6-yl)methanol], the IC50 in assay [1] came to 520 nM; in assay [2], 5610 nM; in assay [3] it was 818 nM; in assay [4] it was 407 nM; in assay [5] it was 754 nM; in assay [6], 807 nM. Moreover, 607 nM corresponded to half-maximal inhibition in assay [7] (IC50).

As to `CCc1cccc2cccc(-c3ncc4c(N5CC6CC(O)C(C6)C5)nc(OCC56CCCN5CCC6)nc4c3F)c12` (stereo not drawn) [Example 290, 3-(7-(8-ethylnaphthalen-1-yl)-8-fluoro-2-((hexahydro-1H-pyrrolizin-7a-yl)methoxy)pyrido[4,3-d]pyrimidin-4-yl)-3-azabicyclo[3,2,1]octan-6-ol], the IC50 was 147 nM in assay [1]; 582 nM in assay [2]; 276 nM in assay [3]; 207 nM in assay [4]; 176 nM in assay [5]; 171 nM in assay [6]. In assay [7], this compound yielded an IC50 of 183 nM.

`CCc1cccc2cccc(-c3ncc4c(N5CCOCC(C)(O)C5)nc(OCC56CCCN5CCC6)nc4c3F)c12` (stereo not drawn) [Example 291, 4-(7-(8-ethylnaphthalen-1-yl)-8-fluoro-2-((hexahydro-1H-pyrrolizin-7a-yl)methoxy)pyrido[4,3-d]pyrimidin-4-yl)-6-methyl-1,4-oxazepan-6-ol]: the IC50 in assay [1] worked out at 192 nM; in assay [2], 140 nM; in assay [3], 269 nM; in assay [4], 161 nM; in assay [5] it was 439 nM; in assay [6] it was 277 nM. Besides, the IC50 in assay [7] stood at 229 nM.
